Measurements: US20230174649A1, “PHARMACEUTICAL COMPOSITIONS CONTAINING ANTI-CD47 ANTIBODIES” (I-MAB BIOPHARMA US LIMITED, priority 2020, published 2023)
Several values for one entry are separate records, joined by “and”; a condition that tells them apart may be missing. Identical values can stand only once.

Assays:
CD47 = assay: FACS analysis of expression level of CD47 on tumor cell surface; assay type: cell-based, Human; conditions: Toledo cells; for Mean Fluorescence Intensity (MFI) CD47: 12 hours
Method: (§1) For FACS analysis, on the day of analysis (day 1), Toledo cells were seeded into 96 well plate and cultured at a density of 0.2×10^6 cells/well. Then the cells were treated with the selected small molecule therapeutic agents for 12 hours.
(§2) On day 2, cells were harvested, washed twice and then re-suspended in 100 uL FACS buffer subject to FACS analysis. For detection of the expression of calreticulin and CD47, cells were incubated with anti-calreticulin antibody and commercially available anti-CD47 antibody (BD Biosciences, Catalog number: 561249) in dark at 4° C. for 30 mins.
(§3) Then, the cells were subject to FACS analysis. Data was acquired and analyzed.

Calreticulin = assay: FACS analysis of expression level of calreticulin on tumor cell surface; assay type: cell-based, Human; conditions: Toledo cells; for Mean Fluorescence Intensity (MFI) Calreticulin: 12 hours
Method: as §1, §2, §3

Toledo Cells = assay: FACS-based phagocytosis assay, macrophages cocultured with Toledo cells; assay type: cell-based, Human
Method: FACS-based phagocytosis assays were performed to evaluate the phagocytic abilities of macrophages.
Toledo Cells (a tumor cell line, as a target) were labelled with CellTrace™ Far Red and plated into 96-well plate at a density of 0.15×10^6 cells/well for 12 hours. The Macrophages were prepared as discussed above and then labelled with CellTrace Violet. Next, the macrophages were added into the plate as an effector at an effector:target (Toledo) ratio of 1:3, giving a final density of macrophages at 0.05×10^6 cells/well. Macrophages and tumor cells were cocultured for 2-6 h at 37° C. in the presence of the indicated treatments (small molecule therapeutic agents, CD47 antibody, CD20 antibody or combinations). The incubation time depending on the phagocytosis rate, expecting phagocytosis of 5-20% cells.
Then, cells were acquired and data were analyzed.

macrophages = assay: Macrophage Viability Assay (CellTiter-Glo); assay type: cell-based, Human; conditions: for Macrophage viability (CellTiter-Glo Luminescent Cell Viability Assay): 16 hours, three replicate lines
Method: Then, the monocytes isolated by MACS were subsequently cultured in fresh complete medium supplemented with recombinant human granulocyte-macrophage colony-stimulating factor GM-CSF (50 ng/ml) and human recombinant IL-4 (35 ng/ml) to activate differentiated macrophages. After 6 days of culture (on day 7), cells were harvested, pooled together and counted for next use.
The cells from Example 2 were plated into a 96-well flat bottom plate at a density of 0.05×10^6 cells/well. After 2 hours of incubation, the macrophages were well attached to the plate. Then selected small molecule therapeutic agents were added to the well and cocultured for 16 hours. On day 8, macrophage viability was assessed by CellTiter-Glo® Luminescent Cell Viability Assay, according to the manufacture's instruction.

WSU-DLCL2 cells = assay: Anti-tumor efficacy in WSU-DLCL2 tumor xenograft model; assay type: in vivo, NOD/SCID mice; conditions: 5 mg/kg each agent; for T/C (%) / TGI (%): day 43
Excerpt: To establish the xenograft model, human diffuse large B Cell lymphoma (WSU-DLCL2 cells) were subcutaneously (s.c.) injected into 6- to 7-week-old NOD/SCID mice (Shanghai Lingchang Biotechnology Co., Ltd, Shanghai, China) for tumor development. When tumor volume reaches a mean value of approximately 94 mm^3, 32 mice were divided into 4 groups of 8 equally and injected intravenously (i.v.) with PBS (control group), anti-CD47 antibody (i.e. T4J), rituximab, or anti-CD47 antibody T4J+ rituximab at a dose of 5 mg/kg, respectively (See, Table 5). The anti-tumor efficacy studies were performed using a twice per week dosing schedule (5 mg/kg) for 4 weeks.
The first day of antibody administration was designated as day 0. Mice were then monitored for tumor development and progression, and observation continued until day 43. Tumor volumes were measured twice a week in two dimensions (length and width) using a caliper, and the volumes were calculated using the following formula: Volume (V)=(L×W×W)/2, where L is tumor length (the longest tumor dimension) and W is tumor width (the longest tumor dimension perpendicular to L). The percentage of tumor growth inhibition (TGI) was calculated as follows: 100%×(1−[(Vtreated(^finalday)−Vtreated(^initial day))/(Vcontrol(^final day)−Vcontrol(^initial day)))]), where V is the tumor volume. Tumor body weight was measured twice per week after randomization and at day 43. Antibody treatment was then stopped after 43 days of study and mice were euthanized and necropsied for evidence of tumors.
Group comparisons were carried out using one-way analysis of variance (ANOVA). Data analysis were performed using IBM SPSS software version 18.0 (IBM, Armonk, N.Y., U.S.). Values of tumor volume and tumor body weight were expressed as mean±standard error of the mean (SEM). A P value of less than 0.05 (p<0.05) was considered statistically significant.

[1] = from tumor volume, i.v., BIW × 4 weeks

CC1(C)CCC(CN2CCN(c3ccc(C(=O)NS(=O)(=O)c4ccc(NCC5CCOCC5)c([N+](=O)[O-])c4)c(Oc4cnc5[nH]ccc5c4)c3)CC2)=C(c2ccc(Cl)cc2)C1 [Venetoclax]
Mean Fluorescence Intensity (MFI) CD47 (CD47; 0.008 uM): 7873 | Mean Fluorescence Intensity (MFI) CD47 (CD47; 0.04 uM): 6201 | Mean Fluorescence Intensity (MFI) CD47 (CD47; 0.2 uM): 5206 | Mean Fluorescence Intensity (MFI) CD47 (CD47; 1 uM): 4232 | Mean Fluorescence Intensity (MFI) CD47 (CD47; 5 uM): 3540 | inhibition of CD47 expression (CD47; dose of 5 μM): ~50% | Mean Fluorescence Intensity (MFI) Calreticulin (Calreticulin; 0.008 uM): 117 | Mean Fluorescence Intensity (MFI) Calreticulin (Calreticulin; 0.04 uM): 258 | Mean Fluorescence Intensity (MFI) Calreticulin (Calreticulin; 0.2 uM): 471 | Mean Fluorescence Intensity (MFI) Calreticulin (Calreticulin; 1 uM): 1123 | Mean Fluorescence Intensity (MFI) Calreticulin (Calreticulin; 5 uM): 2533 | increase of the expression level of calreticulin (Calreticulin; dose of 5 μM): ~120 folds | macrophage phagocytosis (untreated = 1.00) (Toledo Cells; Cpd 0.0016 uM, T4J = 0, R = 0): 1.00 | macrophage phagocytosis (untreated = 1.00) (Toledo Cells; Cpd 0.0016 uM, T4J = 0, R = 0.01 ug/ml): 1.45 | macrophage phagocytosis (untreated = 1.00) (Toledo Cells; Cpd 0.0016 uM, T4J = 0.1 ug/ml, R = 0): 2.62 | macrophage phagocytosis (untreated = 1.00) (Toledo Cells; Cpd 0.0016 uM, T4J = 0.1 ug/ml, R = 0.01 ug/ml): 3.23 | macrophage phagocytosis (untreated = 1.00) (Toledo Cells; Cpd 0.008 uM, T4J = 0, R = 0): 1.10 | macrophage phagocytosis (untreated = 1.00) (Toledo Cells; Cpd 0.008 uM, T4J = 0, R = 0.01 ug/ml): 1.54 | macrophage phagocytosis (untreated = 1.00) (Toledo Cells; Cpd 0.008 uM, T4J = 0.1 ug/ml, R = 0): 2.59 | macrophage phagocytosis (untreated = 1.00) (Toledo Cells; Cpd 0.008 uM, T4J = 0.1 ug/ml, R = 0.01 ug/ml): 3.30 | macrophage phagocytosis (untreated = 1.00) (Toledo Cells; Cpd 0.04 uM, T4J = 0, R = 0): 1.17 | macrophage phagocytosis (untreated = 1.00) (Toledo Cells; Cpd 0.04 uM, T4J = 0, R = 0.01 ug/ml): 1.82 | macrophage phagocytosis (untreated = 1.00) (Toledo Cells; Cpd 0.04 uM, T4J = 0.1 ug/ml, R = 0): 2.64 | macrophage phagocytosis (untreated = 1.00) (Toledo Cells; Cpd 0.04 uM, T4J = 0.1 ug/ml, R = 0.01 ug/ml): 3.37 | macrophage phagocytosis (untreated = 1.00) (Toledo Cells; Cpd 0.2 uM, T4J = 0, R = 0): 1.41 | macrophage phagocytosis (untreated = 1.00) (Toledo Cells; Cpd 0.2 uM, T4J = 0, R = 0.01 ug/ml): 1.93 | macrophage phagocytosis (untreated = 1.00) (Toledo Cells; Cpd 0.2 uM, T4J = 0.1 ug/ml, R = 0): 2.81 | macrophage phagocytosis (untreated = 1.00) (Toledo Cells; Cpd 0.2 uM, T4J = 0.1 ug/ml, R = 0.01 ug/ml): 3.64 | macrophage phagocytosis (untreated = 1.00) (Toledo Cells; Cpd 1 uM, T4J = 0, R = 0): 1.56 | macrophage phagocytosis (untreated = 1.00) (Toledo Cells; Cpd 1 uM, T4J = 0, R = 0.01 ug/ml): 2.03 | macrophage phagocytosis (untreated = 1.00) (Toledo Cells; Cpd 1 uM, T4J = 0.1 ug/ml, R = 0): 2.91 | macrophage phagocytosis (untreated = 1.00) (Toledo Cells; Cpd 1 uM, T4J = 0.1 ug/ml, R = 0.01 ug/ml): 3.65 | Macrophage viability (CellTiter-Glo Luminescent Cell Viability Assay) (macrophages; Cpd 0.002 uM): 5968 and 6024 and 5856 | Macrophage viability (CellTiter-Glo Luminescent Cell Viability Assay) (macrophages; Cpd 0.008 uM): 6148 and 6172 and 5912 | Macrophage viability (CellTiter-Glo Luminescent Cell Viability Assay) (macrophages; Cpd 0.04 uM): 6288 and 6072 and 6264 | Macrophage viability (CellTiter-Glo Luminescent Cell Viability Assay) (macrophages; Cpd 0.2 uM): 7260 and 6072 and 5756 | Macrophage viability (CellTiter-Glo Luminescent Cell Viability Assay) (macrophages; Cpd 1 uM): 6052 and 6020 and 6088 | Macrophage viability (CellTiter-Glo Luminescent Cell Viability Assay) (macrophages; Cpd 5 uM): 5760 and 5660 and 6120 | Macrophage viability (CellTiter-Glo Luminescent Cell Viability Assay) (macrophages; Cpd 25 uM): 4696 and 4596 and 4776 | Macrophage viability (CellTiter-Glo Luminescent Cell Viability Assay) (macrophages; Cpd 50 uM): 1240 and 1132 and 1108 | toxicity to macrophages (macrophages; dose as high as 50 μM): showed toxicity | toxicity to macrophages (macrophages; dose lower than 10 μM): little toxic

Rituximab: anti-CD20 antibody, heavy chain SEQ ID NO: 83, light chain SEQ ID NO: 84
Tumor Body Weight (mg) on day 43 (Mean ± SEM) (WSU-DLCL2 cells; i.v., BIW × 4 weeks): 1673.7 ± 269.0 mg | Tumor Volume (mm^3) on day 43 (Mean ± SEM) (WSU-DLCL2 cells; i.v., BIW × 4 weeks): 1578.37 ± 241.53 mm^3 | T/C (%) (WSU-DLCL2 cells; from tumor body weight): 66% | TGI (%) (WSU-DLCL2 cells; from tumor body weight): 34% | T/C (%) (WSU-DLCL2 cells; [1]): 73% | TGI (%) (WSU-DLCL2 cells; [1]): 27% | macrophage phagocytosis (untreated = 1.00) (Toledo Cells; Cpd 0, T4J = 0, R = 0.01 ug/ml, listed as R): 1.36 and 1.31 and 1.57 and 1.38 | phagocytic ability of macrophages (Toledo Cells; agent itself or antibody combination): can promote macrophage phagocytosis
